Read-outs that look alike come from different tables or passages of the source. Peptide text beside a SMILES is read from it.
Tests used:
periodontain [1] = assay: Activation of periodontain by reducing agents and additives; format: biochemical, Porphyromonas gingivalis; details: for Periodontain activity achieved with reducing agent: reducing agent at 0.1 mM concentration
Rgp's = details: cited from earlier work
Kgp = Kgp (Porphyromonas gingivalis, UniProt B2RLK2); details: cited from earlier work
periodontain [2] = format: biochemical, Porphyromonas gingivalis
[3] = system: human α1-proteinase inhibitor

O[C@H](CS)[C@H](O)CS (racemic) [DTT, dithiothreitol]
Periodontain activity achieved with reducing agent (periodontain [1]): full activity

CC(C)C[C@H](NC(=O)[C@H]1O[C@@H]1C(=O)O)C(=O)NCCCCN=C(N)N (relative stereo) [E-64, L-trans-epoxysuccinyl-leucylamide-(4-guanidino)-butane]
Inhibition of Rgp's (Rgp's): only weakly inhibited | Inhibition of Kgp (Kgp): not inhibited | Inhibition of periodontain (in words) (periodontain [2]): readily inhibited | Percent Inhibition (periodontain [2]; 100 µM): 100%

O=c1oc(Cl)c(Cl)c2ccccc12 [Dichloroisocoumarin, 3,4 dichloroisocoumarin]
Inhibition of periodontain (in words) (periodontain [2]): readily inhibited | Percent Inhibition (periodontain [2]): 2%

NC(=O)CI [Idoacetamide]
Inhibition of periodontain (in words) (periodontain [2]): readily inhibited | Percent Inhibition (periodontain [2]): 100%

CC(=O)N[C@@H](CC(C)C)C(=O)N[C@@H](CC(C)C)C(=O)N[C@H](C=O)CCCNC(=N)N [Leupeptin]
Inhibition of periodontain (in words) (periodontain [2]): readily inhibited | Percent Inhibition (periodontain [2]; 50 µM): 88%

NC(N)=NCCC[C@H](NC(=O)[C@@H]1CCCN1C(=O)[C@H](N)Cc1ccccc1)C(=O)CCl [Phe—Pro—Arg chloromethyl ketone, Phe-Pro-Arg chloromethyl ketone]
Inhibition of periodontain (in words) (periodontain [2]): readily inhibited | Percent Inhibition (periodontain [2]; 10 µM): 96%

NCCCC[C@H](NC(=O)[C@H](Cc1ccccc1)NC(=O)OCc1ccccc1)C(=O)COC(=O)c1ccccc1 [Z-Phe—Lys benzoyloxy methyl ketone, Z-Phe-Lys benzoyloxy methyl ketone]
Inhibition of periodontain (in words) (periodontain [2]): readily inhibited | Percent Inhibition (periodontain [2]; 10 µM): 99%

N[C@@H](CS)C(=O)O [free cysteine, cysteine]
Periodontain activity achieved with reducing agent (periodontain [1]): full activity

NCC(=O)NCC(=O)O [glycyl-glycine] (H-Gly-Gly-OH)
Stimulation of periodontain activity (periodontain [1]; data not shown): did not stimulate activity

OCCS [β-mercaptoethanol]
Periodontain activity achieved with reducing agent (periodontain [1]): full activity

Tosyl-L-lysine chloromethyl ketone
Inhibition of periodontain (in words) (periodontain [2]): readily inhibited | Percent Inhibition (periodontain [2]): 91%

calcium ions
Stabilizing effect on periodontain (periodontain [1]; data not shown): did not have a stabilizing effect

ethylenediaminetetra-acetate [EDTA]
Percent Inhibition (periodontain [2]): 0%

periodontain (mature native heterodimer purified from P. gingivalis HG66 culture fluid)
Specific Activity (α1-PI inactivation assay, final TSK gel filtration step) [3]: 368 units/mg | hydrolysis of a synthetic pNA substrate (Phe-Leu-Glu-pNA): no hydrolysis was detected
